We go through 64 molecules from PubChem BioAssay AID977605 (Broad Institute, 2014).

Each structure is given as a SMILES string. Active and inactive are the calls of the source.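 How the source made its calls: active means fitted curve reaches 40% activation below the top valid tested dose, in every test run; inconclusive means test runs disagree on the call; inactive means the rest, including effects opposite to the expected direction.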

The first experiment can be described thus: endothelial E-selectin upregulation by compounds – imaging, HUVEC, cherry-picked samples, dose response (AID 977605).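 Further: signal is the share of imaged cells scored positive for E-selectin.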 To be noted: HUVEC E-selectin immunostaining, at 18 µM (top of the series), percent of TNF-alpha response over vehicle.
In the case of `C[C@H](CO)N1C[C@H](C)[C@H](CN(C)C(=O)Nc2ccc3c(c2)OCO3)Oc2ccc(NC(=O)CCCCCC(=O)Nc3ccccc3N)cc2CC1=O`, the activation was 0.255% (inactive).
On the same count and under the same terms, next, `C[C@@H]1CN([C@H](C)CO)C(=O)Cc2cc(NC(=O)Cc3ccccc3)ccc2O[C@H]1CN(C)C(=O)Nc1cccc2ccccc12`: 0.676% (inactive).

Still in this experiment, the particulars now being: HUVEC E-selectin immunostaining, at 19.5 µM (top of the series), percent of TNF-alpha response over vehicle.
In the case of `C[C@@H]1CN([C@@H](C)CO)C(=O)c2cccc(NC(=O)Nc3ccc(F)cc3)c2O[C@@H]1CN(C)Cc1ccncc1`, the activation is -0.005% (inactive).
Still for that read-out and setting: next, `O=C(O)Cn1cc(C(=O)C(F)(F)F)c2ccccc21`: 0.43% (inactive).
On to `C[C@@H]1CN([C@@H](C)CO)C(=O)Cc2cc(NC(=O)Nc3ccc(F)cc3)ccc2O[C@@H]1CN(C)Cc1ccc(C(=O)O)cc1`, for which the activation was -0.134% (inactive).
Consider `COc1ccc(S(=O)(=O)N(C)C[C@@H]2Oc3ccc(NC(=O)c4ccncc4)cc3C(=O)N([C@H](C)CO)C[C@H]2C)cc1`, for which the activation was -0.082% (inactive).
In the case of `CN(Cc1cccc2ncccc12)C(=O)CC1C(=O)NCCN1Cc1ccc(F)cc1` (centres undefined), the activation was -0.111% (inactive).
The same measure, in the same setting: next, `COc1ccc(OCCN2CCN(S(=O)(=O)c3ccccc3C(F)(F)F)CC2)cc1`: -0.023% (inactive).
`CC(C)NC(=O)Nc1ccc2c(c1)CC(=O)N([C@@H](C)CO)C[C@H](C)[C@@H](CN(C)Cc1ccc(C(=O)O)cc1)O2`: the activation is 0.001% (inactive).
Same read-out and setting: the result for `Cn1nc(C(=O)NNC(=O)c2ccccc2Br)c2ccccc2c1=O` reads -0.008% (inactive).
For `C[C@@H]1CN([C@@H](C)CO)C(=O)c2cccc(NC(=O)CCCCCC(=O)Nc3ccccc3N)c2O[C@H]1CN(C)S(=O)(=O)c1cn(C)cn1`, the activation was 0.292% (inactive).
Regarding `COc1ccc(-c2nc(NC(=O)Cn3c(=O)oc4ccccc43)sc2C)cc1`, the activation is 1.37% (inactive).
Still for that read-out and setting: next, `COc1ccc(NS(=O)(=O)c2ccc3c(c2)CCCN3C(C)=O)cc1`: -0.06% (inactive); `C[C@@H]1CN([C@H](C)CO)C(=O)c2cccc(NC(=O)CCCCCC(=O)Nc3ccccc3N)c2O[C@@H]1CN(C)S(=O)(=O)c1cn(C)cn1`: -0.195% (inactive); `C[C@@H]1CN([C@H](C)CO)C(=O)c2cc(N(C)C)ccc2O[C@@H]1CN(C)C(=O)Nc1ccc2c(c1)OCO2`: 0.018% (inactive).
Still for that read-out and setting: next, `C[C@H]1CN([C@@H](C)CO)C(=O)c2cccc(NS(C)(=O)=O)c2O[C@H]1CN(C)S(C)(=O)=O`: 0.973% (inactive); `COc1ccccc1NS(=O)(=O)c1c(C)[nH]c(C)c1C(=O)N1CCCC1`: 13.9% (inactive); `Cc1ccc(N2C(=O)[C@@H]3C(c4cccnc4)=NO[C@@H]3C2=O)c(C)c1`: 0.363% (inactive).
For the molecule `C[C@H]1CN([C@@H](C)CO)C(=O)c2cccc(NC(=O)C3CCOCC3)c2O[C@H]1CN(C)Cc1ccc(Oc2ccccc2)cc1`, the activation is 0.01% (inactive).
The same measure, in the same setting: next, `C[C@@H]1CN([C@@H](C)CO)C(=O)Cc2cc(NC(=O)Cn3cnnn3)ccc2O[C@H]1CN(C)C(=O)Nc1ccc(C(F)(F)F)cc1`: -0.025% (inactive); `CCOc1ccc2ncc(S(=O)(=O)c3ccc(C)cc3)c(N3CCC4(CC3)OCCO4)c2c1`: -0.045% (inactive); `COc1ccc(NC(=O)c2cc(-c3cccs3)on2)c(OC)c1`: 1.59% (inactive).
Same read-out and setting: next, `COc1ccc(NC(=O)N(C)C[C@@H]2Oc3ccc(NC(=O)Cc4ccccc4)cc3CC(=O)N([C@H](C)CO)C[C@H]2C)cc1`: -0.201% (inactive); `O=C(COc1ccc(Cl)cc1)Nc1nnc(S(=O)(=O)N2CCCCCC2)s1`: 1.11% (inactive).
On the same count and under the same terms, the result for `CC(C)NC(=O)N(C)C[C@@H]1Oc2c(NC(=O)c3cnccn3)cccc2C(=O)N([C@@H](C)CO)C[C@@H]1C` reads -0.012% (inactive); that for `COc1ccccc1N(C(=O)c1snc(C(N)=O)c1N)C(C(=O)NCc1ccccc1)c1ccc(C)o1` (centres undefined), -0.235% (inactive).
Turning to `CC1=NC(C)(C)Cc2c(C)cccc21`, the activation was -0.148% (inactive).
On the same count and under the same terms, the result for `COc1ccc(NC(=O)N(C)C[C@H]2Oc3ccc(NC(=O)c4ccncc4)cc3CC(=O)N([C@H](C)CO)C[C@H]2C)cc1` reads -0.01% (inactive).
Still for that read-out and setting: the result for `Cc1ccc(C(=O)NCC(=O)Nc2ccncc2)cc1C` reads -0.08% (inactive); that for `CC(C)(C)c1ccc(NC(=O)N2CCCN(c3ccc([N+](=O)[O-])cn3)CC2)cc1`, 0.154% (inactive).
For the molecule `C[C@@H]1CN([C@@H](C)CO)C(=O)Cc2cc(NC(=O)c3ccncc3)ccc2O[C@@H]1CN(C)S(=O)(=O)c1cn(C)cn1`, the activation was -0.153% (inactive).
As for `O=C(CCCn1c(=O)c2ccccc2n(CC(=O)N2CCN(c3ccccc3)CC2)c1=O)NCc1ccco1`, the activation was -0.084% (inactive).
Still for that read-out and setting: the result for `C[C@@H]1CN([C@H](C)CO)S(=O)(=O)c2ccc(-c3ccc(F)cc3)cc2O[C@@H]1CN(C)CC1CC1` reads 0.158% (inactive); that for `C[C@H](CO)N1C[C@H](C)[C@H](CN(C)Cc2ccncc2)Oc2c(NC(=O)Nc3ccc(F)cc3)cccc2C1=O`, -0.19% (inactive); that for `C[C@@H]1CN([C@@H](C)CO)C(=O)c2cc(NC(=O)Nc3ccc(C(F)(F)F)cc3)ccc2O[C@H]1CN(C)S(=O)(=O)c1ccccc1`, -0.17% (inactive).
For `Cc1noc(C)c1NC(=O)Nc1cccc2c1O[C@H](CN(C)CC1CCCCC1)[C@H](C)CN([C@@H](C)CO)C2=O`, the activation is 0.049% (inactive).
`C[C@@H]1CN([C@@H](C)CO)C(=O)Cc2cc(NC(=O)Nc3ccc(F)cc3)ccc2O[C@@H]1CN(C)S(=O)(=O)c1cn(C)cn1`: the activation is -0.041% (inactive).
With `C[C@@H]1CN([C@H](C)CO)C(=O)Cc2cc(NS(C)(=O)=O)ccc2O[C@@H]1CN(C)S(=O)(=O)c1cn(C)cn1`, the activation was 13.4% (inactive).
`C[C@H](CO)N1C[C@H](C)[C@H](CN(C)C)Oc2ccc(NC(=O)Cc3cn(C)c4ccccc34)cc2C1=O`: the activation is 8.16% (inactive).
The same measure, in the same setting: next, `CCc1ccc(C(C(=O)NC2CCCCC2)N(C(=O)c2csnn2)C2CC2)cc1` (centres undefined): -0.021% (inactive); `COc1cccc(C(=O)Nc2cc(C)c3c(=O)oc4ccccc4c3n2)c1`: 2.1% (inactive); `CC(C)(C)c1ccc(C(=O)Nc2ccc3c(c2)C(=O)NC3=O)cc1`: 0.042% (inactive).
Regarding `CSc1nc2c(cnn2-c2ccc(C)c(C)c2)c(=O)[nH]1`, the activation is 0.487% (inactive).
On the same count and under the same terms, next, `CCNC(=O)CC1C(=O)N(c2ccc(OC)cc2)C(=O)N1CCOC` (centres undefined): -0.131% (inactive); `C[C@@H]1CN([C@@H](C)CO)C(=O)c2cccc(NS(=O)(=O)c3cn(C)cn3)c2O[C@H]1CN(C)C(=O)Nc1ccc2c(c1)OCO2`: -0.015% (inactive); `CO[C@H]1CN(C)C(=O)c2cc(NC(=O)Nc3ccc(Cl)cc3)ccc2OC[C@H](C)NC[C@H]1C`: 0.158% (inactive).
Still for that read-out and setting: the result for `CCOc1ccccc1NC(=O)N1CCC(NC(=O)C2CCCCC2)CC1` reads -0.152% (inactive).
On to `CC(C)NC(=O)N(C)C[C@@H]1Oc2c(NC(=O)c3ccc(-c4nccs4)cc3)cccc2C(=O)N([C@H](C)CO)C[C@H]1C`, for which the activation was -0.093% (inactive).
`CN(C)c1cccc(C(=O)NCc2ccc3c(c2)OCO3)c1`: the activation is 8.26% (inactive).
Turning to `C[C@H]1CN([C@@H](C)CO)C(=O)c2cccc(NS(=O)(=O)c3ccc(F)cc3)c2O[C@H]1CN(C)S(=O)(=O)c1cccs1`, the activation is -0.103% (inactive).
Consider `Cc1noc(C)c1S(=O)(=O)Nc1ccc2c(c1)C(=O)N([C@@H](C)CO)C[C@H](C)[C@H](CN(C)Cc1ccc3c(c1)OCO3)O2`, for which the activation was -0.065% (inactive).
For `Cc1cc(C(=O)Nc2ccc(C)c(C)c2)n(-c2ccccc2)n1`, the activation is 0.076% (inactive).
With `COc1ccccc1CN1CC(C(=O)N(C)Cc2[nH]c3ccccc3c2C)CCC1=O` (centres undefined), the activation was 0.071% (inactive).
Regarding `C[C@H]1CN([C@@H](C)CO)C(=O)c2cc(NC(=O)Cn3cnnn3)ccc2O[C@@H]1CN(C)Cc1ccc(Oc2ccccc2)cc1`, the activation was -0.201% (inactive).

Still in this experiment, the particulars now being: HUVEC E-selectin immunostaining, at 21 µM (top of the series), percent of TNF-alpha response over vehicle.
For `C[C@H]1CN([C@@H](C)CO)C(=O)c2cc(NC(=O)Cn3cnnn3)ccc2O[C@H]1CN(C)Cc1ccc(Oc2ccccc2)cc1`, the activation was 0.004% (inactive).
For `C[C@H](CO)N1C[C@H](C)[C@H](CN(C)Cc2ccncc2)Oc2ccc(NS(C)(=O)=O)cc2CC1=O`, the activation was 0.077% (inactive).
Same read-out and setting: the result for `COc1ccc(S(=O)(=O)Nc2cccc3c2O[C@H](CN(C)C(=O)Nc2c(C)noc2C)[C@@H](C)CN([C@@H](C)CO)C3=O)cc1` reads -0.092% (inactive); that for `COc1ccc(S(=O)(=O)Nc2ccc3c(c2)C(=O)N([C@@H](C)CO)C[C@@H](C)[C@@H](CN(C)Cc2ccc(Cl)c(Cl)c2)O3)cc1`, -0.053% (inactive).
`CC(C)NC(=O)N(C)C[C@H]1Oc2ccc(NC(=O)CCC(F)(F)F)cc2CC(=O)N([C@@H](C)CO)C[C@@H]1C`: the activation was -0.117% (inactive).
Consider `COc1ccc(CN(C)C[C@@H]2Oc3ccc(NC(=O)c4ccncc4)cc3C(=O)N([C@H](C)CO)C[C@H]2C)cc1`, for which the activation is 0.114% (inactive).
Still for that read-out and setting: next, `C[C@@H]1CN([C@H](C)CO)C(=O)c2cc(NC(=O)C3CCCCC3)ccc2O[C@H]1CN(C)C(=O)Nc1ccc2c(c1)OCO2`: 4.77% (inactive); `C[C@@H]1CN([C@H](C)CO)C(=O)c2cccc(NC(=O)C3CC3)c2O[C@H]1CN(C)CC1CC1`: -0.061% (inactive).
In the case of `C[C@@H]1CN([C@@H](C)CO)C(=O)c2cc(NC(=O)CCN3CCOCC3)ccc2O[C@H]1CN(C)Cc1ccncc1`, the activation was -0.05% (inactive).
With `C[C@@H]1CN([C@H](C)CO)C(=O)c2cccc(NC(=O)Nc3ccc4c(c3)OCO4)c2O[C@H]1CN(C)C(=O)Nc1ccc(C(F)(F)F)cc1`, the activation is 0.262% (inactive).
